Source: the kinase profiling compilation of Christmann-Franck et al. (2016)

What was measured:
Experiment in all cases: KINOMEscan competition binding
Conditions in all cases: compound 10.0 µM
[1] = test system: ABL1 (human), P00519 [M351T]
CAMKK1 (human) = CAMKK1 (human) (UniProt Q8N5S9)
CDC42BPG (human) = CDC42BPG (human) (UniProt Q6DT37)
CDK11B (human) = CDK11B (human) (UniProt P21127)
CDK17 (human) = CDK17 (human) (UniProt Q00537)
CDK3 (human) = CDK3 (human) (UniProt Q00526)
CDK8 (human) = CDK8 (human) (UniProt P49336)
DCLK3 (human) = DCLK3 (human) (UniProt Q9C098)
[2] = test system: EIF2AK4 KD2 (human), Q9P2K8 [S808G]
Sequence of EIF2AK4 KD2 (human), Q9P2K8 [S808G] (Q9P2K8 whole entry S808G, looked up): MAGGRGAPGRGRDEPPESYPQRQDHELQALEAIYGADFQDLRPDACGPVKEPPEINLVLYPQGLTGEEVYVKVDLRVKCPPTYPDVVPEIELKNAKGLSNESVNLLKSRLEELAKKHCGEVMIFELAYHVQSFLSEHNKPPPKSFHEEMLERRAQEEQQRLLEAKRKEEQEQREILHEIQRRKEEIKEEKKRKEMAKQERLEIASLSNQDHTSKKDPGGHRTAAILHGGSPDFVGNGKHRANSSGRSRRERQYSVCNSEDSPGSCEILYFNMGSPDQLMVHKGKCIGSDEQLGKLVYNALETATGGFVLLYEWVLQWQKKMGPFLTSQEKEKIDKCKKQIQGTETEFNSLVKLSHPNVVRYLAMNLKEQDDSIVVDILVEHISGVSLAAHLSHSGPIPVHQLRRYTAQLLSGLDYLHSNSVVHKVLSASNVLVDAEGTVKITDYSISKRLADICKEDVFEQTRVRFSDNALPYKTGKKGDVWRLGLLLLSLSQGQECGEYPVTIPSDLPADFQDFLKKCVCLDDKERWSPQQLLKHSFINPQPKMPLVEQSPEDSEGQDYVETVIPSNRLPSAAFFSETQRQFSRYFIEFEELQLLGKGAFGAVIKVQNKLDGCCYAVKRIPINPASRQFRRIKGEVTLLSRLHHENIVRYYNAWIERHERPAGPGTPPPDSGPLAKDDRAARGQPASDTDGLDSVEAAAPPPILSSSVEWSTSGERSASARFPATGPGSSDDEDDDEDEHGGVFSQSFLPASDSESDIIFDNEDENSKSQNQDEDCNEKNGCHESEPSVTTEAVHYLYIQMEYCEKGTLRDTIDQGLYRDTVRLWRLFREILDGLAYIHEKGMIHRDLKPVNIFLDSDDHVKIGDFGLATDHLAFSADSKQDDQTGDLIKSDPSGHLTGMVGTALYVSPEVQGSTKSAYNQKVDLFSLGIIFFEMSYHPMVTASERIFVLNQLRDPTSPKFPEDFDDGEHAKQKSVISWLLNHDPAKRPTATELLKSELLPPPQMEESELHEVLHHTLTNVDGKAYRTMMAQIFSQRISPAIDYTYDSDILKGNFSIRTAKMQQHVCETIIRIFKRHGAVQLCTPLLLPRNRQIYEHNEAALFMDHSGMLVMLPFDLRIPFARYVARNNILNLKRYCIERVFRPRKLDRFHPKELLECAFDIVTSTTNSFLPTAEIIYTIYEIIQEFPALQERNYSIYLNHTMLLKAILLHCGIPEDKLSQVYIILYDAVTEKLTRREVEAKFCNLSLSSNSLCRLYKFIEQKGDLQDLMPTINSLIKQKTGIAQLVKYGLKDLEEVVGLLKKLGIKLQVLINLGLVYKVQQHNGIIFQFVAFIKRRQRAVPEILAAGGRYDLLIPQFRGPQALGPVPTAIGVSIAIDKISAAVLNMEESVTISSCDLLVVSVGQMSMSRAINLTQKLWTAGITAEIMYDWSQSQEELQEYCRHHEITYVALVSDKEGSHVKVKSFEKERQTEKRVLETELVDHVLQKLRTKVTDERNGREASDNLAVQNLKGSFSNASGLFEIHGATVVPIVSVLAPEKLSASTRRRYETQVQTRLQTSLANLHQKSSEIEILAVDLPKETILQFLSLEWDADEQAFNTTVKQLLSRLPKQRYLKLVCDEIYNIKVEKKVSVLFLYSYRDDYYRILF

EPHA1 (human) = EPHA1 (human) (UniProt P21709)
EPHA8 (human) = EPHA8 (human) (UniProt P29322)
FGFR2 (human) = FGFR2 (human) (UniProt P21802)
FGFR3 (human) = FGFR3 (human) (UniProt P22607)
FGR (human) = FGR (human) (UniProt P09769)
GAK (human) = GAK (human) (UniProt O14976)
[3] = test system: KIT (human), P10721 [D816V]
LIMK1 (human) = LIMK1 (human) (UniProt P53667)
MAP4K2 (human) = MAP4K2 (human) (UniProt Q12851)
MAP4K4 (human) = MAP4K4 (human) (UniProt O95819)
MAPK10 (human) = MAPK10 (human) (UniProt P53779)
MLTK (human) = MLTK (human) (UniProt Q9NYL2)
MYO3B (human) = MYO3B (human) (UniProt Q8WXR4)
NEK5 (human) = NEK5 (human) (UniProt Q6P3R8)
NTRK3 (human) = NTRK3 (human) (UniProt Q16288)
PIP5K1A (human) = PIP5K1A (human) (UniProt Q99755)
Sequence of PIP5K1A (human) (Q99755 whole entry, looked up): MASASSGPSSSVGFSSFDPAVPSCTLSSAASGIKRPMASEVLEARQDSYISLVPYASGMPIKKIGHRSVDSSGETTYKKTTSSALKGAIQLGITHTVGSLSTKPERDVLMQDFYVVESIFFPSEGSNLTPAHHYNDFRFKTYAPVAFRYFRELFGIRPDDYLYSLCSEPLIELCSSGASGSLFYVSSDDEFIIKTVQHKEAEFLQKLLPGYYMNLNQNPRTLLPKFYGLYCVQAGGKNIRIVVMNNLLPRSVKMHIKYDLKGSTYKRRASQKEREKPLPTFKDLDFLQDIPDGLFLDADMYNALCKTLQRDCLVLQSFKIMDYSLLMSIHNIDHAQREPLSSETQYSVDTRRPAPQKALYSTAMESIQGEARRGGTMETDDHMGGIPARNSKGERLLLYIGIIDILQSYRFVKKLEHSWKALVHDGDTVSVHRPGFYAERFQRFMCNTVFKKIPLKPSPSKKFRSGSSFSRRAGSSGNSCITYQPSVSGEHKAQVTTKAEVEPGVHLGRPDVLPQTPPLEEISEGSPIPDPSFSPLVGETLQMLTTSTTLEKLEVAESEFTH

PKN1 (human) = PKN1 (human) (UniProt Q16512)
PKN2 (human) = PKN2 (human) (UniProt Q16513)
PRKAA2 (human) = PRKAA2 (human) (UniProt P54646)
PRKCE (human) = PRKCE (human) (UniProt Q02156)
PRKG2 (human) = PRKG2 (human) (UniProt Q13237)
PTK2B (human) = PTK2B (human) (UniProt Q14289)
RPS6KA4 KD2 (human) = RPS6KA4 KD2 (human) (UniProt O75676)
RPS6KA6 KD1 (human) = RPS6KA6 KD1 (human) (UniProt Q9UK32)
STK10 (human) = STK10 (human) (UniProt O94804)
Sequence of STK10 (human) (O94804 whole entry, looked up): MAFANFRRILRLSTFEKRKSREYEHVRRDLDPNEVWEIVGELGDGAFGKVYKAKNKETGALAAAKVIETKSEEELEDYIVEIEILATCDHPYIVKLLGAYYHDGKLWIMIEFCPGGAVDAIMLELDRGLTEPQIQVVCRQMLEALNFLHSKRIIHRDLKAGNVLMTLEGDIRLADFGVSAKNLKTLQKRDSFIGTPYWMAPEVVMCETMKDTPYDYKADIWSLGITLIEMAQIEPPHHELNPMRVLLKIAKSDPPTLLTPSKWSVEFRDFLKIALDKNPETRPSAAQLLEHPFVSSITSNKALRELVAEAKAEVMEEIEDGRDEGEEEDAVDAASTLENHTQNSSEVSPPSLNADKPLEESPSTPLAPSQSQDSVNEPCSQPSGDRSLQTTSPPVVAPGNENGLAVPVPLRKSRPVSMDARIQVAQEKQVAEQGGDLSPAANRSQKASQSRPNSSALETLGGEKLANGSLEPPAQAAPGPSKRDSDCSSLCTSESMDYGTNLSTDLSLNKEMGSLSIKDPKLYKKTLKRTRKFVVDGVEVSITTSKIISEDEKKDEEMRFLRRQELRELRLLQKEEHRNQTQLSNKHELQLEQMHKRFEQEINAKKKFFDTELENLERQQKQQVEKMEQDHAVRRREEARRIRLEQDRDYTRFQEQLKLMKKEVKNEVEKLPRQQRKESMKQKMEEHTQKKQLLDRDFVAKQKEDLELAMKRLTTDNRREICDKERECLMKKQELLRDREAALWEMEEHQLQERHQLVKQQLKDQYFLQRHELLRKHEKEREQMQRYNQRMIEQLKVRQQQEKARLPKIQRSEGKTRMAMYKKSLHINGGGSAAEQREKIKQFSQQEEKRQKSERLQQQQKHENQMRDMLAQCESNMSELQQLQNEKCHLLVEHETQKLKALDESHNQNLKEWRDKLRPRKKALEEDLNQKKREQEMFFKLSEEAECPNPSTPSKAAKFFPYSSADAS

STK16 (human) = STK16 (human) (UniProt O75716)
Sequence of STK16 (human) (O75716 whole entry, looked up): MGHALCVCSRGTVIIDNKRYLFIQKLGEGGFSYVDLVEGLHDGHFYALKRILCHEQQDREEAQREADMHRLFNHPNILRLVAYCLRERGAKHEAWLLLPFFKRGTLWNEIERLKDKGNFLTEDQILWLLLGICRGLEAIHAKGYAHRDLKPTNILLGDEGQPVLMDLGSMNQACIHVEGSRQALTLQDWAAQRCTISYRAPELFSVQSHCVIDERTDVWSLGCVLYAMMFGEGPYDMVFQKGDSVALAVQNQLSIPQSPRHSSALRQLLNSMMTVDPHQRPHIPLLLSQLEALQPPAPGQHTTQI

STK24 (human) = STK24 (human) (UniProt Q9Y6E0)
STK38L (human) = STK38L (human) (UniProt Q9Y2H1)
STK4 (human) = STK4 (human) (UniProt Q13043)
TNK1 (human) = TNK1 (human) (UniProt Q13470)
Sequence of TNK1 (human) (Q13470 whole entry, looked up): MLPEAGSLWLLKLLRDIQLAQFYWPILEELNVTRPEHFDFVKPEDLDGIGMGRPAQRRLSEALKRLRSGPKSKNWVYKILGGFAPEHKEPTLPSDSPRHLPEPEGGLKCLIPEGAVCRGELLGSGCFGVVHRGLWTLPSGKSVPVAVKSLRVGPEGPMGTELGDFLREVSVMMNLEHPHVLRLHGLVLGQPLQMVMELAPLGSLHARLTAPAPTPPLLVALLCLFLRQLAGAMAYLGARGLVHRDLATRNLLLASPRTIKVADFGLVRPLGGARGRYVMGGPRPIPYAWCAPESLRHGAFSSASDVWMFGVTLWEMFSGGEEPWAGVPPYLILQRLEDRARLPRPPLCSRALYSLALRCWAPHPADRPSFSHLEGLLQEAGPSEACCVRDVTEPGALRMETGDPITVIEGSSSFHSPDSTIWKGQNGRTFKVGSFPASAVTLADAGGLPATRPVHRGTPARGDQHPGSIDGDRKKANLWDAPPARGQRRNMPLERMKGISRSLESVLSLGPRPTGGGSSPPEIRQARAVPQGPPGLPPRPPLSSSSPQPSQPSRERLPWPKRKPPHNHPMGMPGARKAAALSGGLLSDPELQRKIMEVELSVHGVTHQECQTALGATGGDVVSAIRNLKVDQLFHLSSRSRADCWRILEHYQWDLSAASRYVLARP

[4] = target: TYK2 JH1 catalytic (human) (UniProt P29597)

Sequence of CDK11B (human) (P21127 whole entry, looked up): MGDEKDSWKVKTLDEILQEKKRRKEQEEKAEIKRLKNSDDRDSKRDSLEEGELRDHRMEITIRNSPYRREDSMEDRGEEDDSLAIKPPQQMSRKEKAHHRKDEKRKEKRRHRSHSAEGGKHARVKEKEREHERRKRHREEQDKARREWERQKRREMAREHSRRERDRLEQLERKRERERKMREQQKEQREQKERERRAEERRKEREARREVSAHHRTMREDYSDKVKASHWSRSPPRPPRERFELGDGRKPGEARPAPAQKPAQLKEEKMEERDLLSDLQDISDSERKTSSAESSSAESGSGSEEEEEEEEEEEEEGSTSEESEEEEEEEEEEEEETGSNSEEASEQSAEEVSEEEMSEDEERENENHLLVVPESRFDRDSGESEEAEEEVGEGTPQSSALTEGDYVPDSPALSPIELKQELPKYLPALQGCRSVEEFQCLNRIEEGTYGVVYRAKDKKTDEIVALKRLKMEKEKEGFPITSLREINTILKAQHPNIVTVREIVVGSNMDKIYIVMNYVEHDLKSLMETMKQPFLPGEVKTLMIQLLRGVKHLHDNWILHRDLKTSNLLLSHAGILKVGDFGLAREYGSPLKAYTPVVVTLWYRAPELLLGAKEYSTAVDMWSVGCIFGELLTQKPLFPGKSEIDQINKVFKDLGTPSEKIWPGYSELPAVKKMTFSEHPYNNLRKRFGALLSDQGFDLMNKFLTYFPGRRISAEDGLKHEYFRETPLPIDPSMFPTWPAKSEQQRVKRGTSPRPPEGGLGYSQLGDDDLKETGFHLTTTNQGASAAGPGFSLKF

Compound	kinase still bound, per cent of control [1]	kinase still bound, per cent of control (CAMKK1 (human))	kinase still bound, per cent of control (CDC42BPG (human))	kinase still bound, per cent of control (CDK11B (human))	kinase still bound, per cent of control (CDK17 (human))	kinase still bound, per cent of control (CDK3 (human))	kinase still bound, per cent of control (CDK8 (human))	kinase still bound, per cent of control (DCLK3 (human))	kinase still bound, per cent of control [2]	kinase still bound, per cent of control (EPHA1 (human))	kinase still bound, per cent of control (EPHA8 (human))	kinase still bound, per cent of control (FGFR2 (human))	kinase still bound, per cent of control (FGFR3 (human))	kinase still bound, per cent of control (FGR (human))	kinase still bound, per cent of control (GAK (human))	kinase still bound, per cent of control [3]	kinase still bound, per cent of control (LIMK1 (human))	kinase still bound, per cent of control (MAP4K2 (human))	kinase still bound, per cent of control (MAP4K4 (human))	kinase still bound, per cent of control (MAPK10 (human))	other results
COc1cc(C(=O)NC2CCN(C)CC2)ccc1Nc1ncc2c(n1)N(C1CCCC1)C(C)CC(=O)N2C (stereo not given)	100%	100%	100%	100%	100%	100%	100%	100%	100%	100%	100%	100%	100%	100%	3.8%	100%	100%	100%	100%	100%	kinase still bound, per cent of control (MLTK (human)): 100%; kinase still bound, per cent of control (MYO3B (human)): 100%; kinase still bound, per cent of control (NEK5 (human)): 100%; kinase still bound, per cent of control (NTRK3 (human)): 100%; kinase still bound, per cent of control (PIP5K1A (human)): 100%; kinase still bound, per cent of control (PKN1 (human)): 100%; kinase still bound, per cent of control (PKN2 (human)): 100%; kinase still bound, per cent of control (PRKAA2 (human)): 100%; kinase still bound, per cent of control (PRKCE (human)): 100%; kinase still bound, per cent of control (PRKG2 (human)): 100%; kinase still bound, per cent of control (PTK2B (human)): 13%; kinase still bound, per cent of control (RPS6KA4 KD2 (human)): 100%; kinase still bound, per cent of control (RPS6KA6 KD1 (human)): 100%; kinase still bound, per cent of control (STK10 (human)): 29%; kinase still bound, per cent of control (STK16 (human)): 100%; kinase still bound, per cent of control (STK24 (human)): 100%; kinase still bound, per cent of control (STK38L (human)): 100%; kinase still bound, per cent of control (STK4 (human)): 100%; kinase still bound, per cent of control (TNK1 (human)): 100%; kinase still bound, per cent of control [4]: 100%
C[C@@H](Oc1cc(-n2cnc3ccc(CN4CCN(C)CC4)cc32)sc1C(N)=O)c1ccccc1C(F)(F)F	93%	99%	100%	100%	90%	100%	95%	72%	29%	94%	90%	75%	80%	82%	100%	16%	100%	24%	64%	100%	kinase still bound, per cent of control (MLTK (human)): 100%; kinase still bound, per cent of control (MYO3B (human)): 100%; kinase still bound, per cent of control (NEK5 (human)): 25%; kinase still bound, per cent of control (NTRK3 (human)): 100%; kinase still bound, per cent of control (PIP5K1A (human)): 14%; kinase still bound, per cent of control (PKN1 (human)): 46%; kinase still bound, per cent of control (PKN2 (human)): 6%; kinase still bound, per cent of control (PRKAA2 (human)): 80%; kinase still bound, per cent of control (PRKCE (human)): 3.9%; kinase still bound, per cent of control (PRKG2 (human)): 95%; kinase still bound, per cent of control (PTK2B (human)): 82%; kinase still bound, per cent of control (RPS6KA4 KD2 (human)): 0.55%; kinase still bound, per cent of control (RPS6KA6 KD1 (human)): 0.6%; kinase still bound, per cent of control (STK10 (human)): 0%; kinase still bound, per cent of control (STK16 (human)): 65%; kinase still bound, per cent of control (STK24 (human)): 81%; kinase still bound, per cent of control (STK38L (human)): 100%; kinase still bound, per cent of control (STK4 (human)): 100%; kinase still bound, per cent of control (TNK1 (human)): 87%; kinase still bound, per cent of control [4]: 81%
Cc1ccc(NC(=O)c2cccc(C(C)(C)C#N)c2)cc1Nc1ccc2ncn(C)c(=O)c2c1	3.3%	34%	98%	11%	100%	100%	22%	100%	85%	10%	2.1%	55%	100%	12%	99%	16%	100%	62%	10%	73%	kinase still bound, per cent of control (MLTK (human)): 6.5%; kinase still bound, per cent of control (MYO3B (human)): 100%; kinase still bound, per cent of control (NEK5 (human)): 33%; kinase still bound, per cent of control (NTRK3 (human)): 38%; kinase still bound, per cent of control (PIP5K1A (human)): 100%; kinase still bound, per cent of control (PKN1 (human)): 100%; kinase still bound, per cent of control (PKN2 (human)): 100%; kinase still bound, per cent of control (PRKAA2 (human)): 100%; kinase still bound, per cent of control (PRKCE (human)): 100%; kinase still bound, per cent of control (PRKG2 (human)): 100%; kinase still bound, per cent of control (PTK2B (human)): 100%; kinase still bound, per cent of control (RPS6KA4 KD2 (human)): 94%; kinase still bound, per cent of control (RPS6KA6 KD1 (human)): 87%; kinase still bound, per cent of control (STK10 (human)): 0.1%; kinase still bound, per cent of control (STK16 (human)): 83%; kinase still bound, per cent of control (STK24 (human)): 79%; kinase still bound, per cent of control (STK38L (human)): 100%; kinase still bound, per cent of control (STK4 (human)): 100%; kinase still bound, per cent of control (TNK1 (human)): 100%; kinase still bound, per cent of control [4]: 85%
